Assay results: US12630544B2, “Compound, α-synuclein aggregate binder, and use thereof” (NATIONAL INSTITUTES FOR QUANTUM SCIENCE AND TECHNOLOGY, priority 2020, dated 2026)

Key:
α-synuclein lesion = biological target: T1, α-synuclein lesion (Mus musculus, UniProt O55042); assay: In vivo two-photon laser scanning fluorescence microscopy of α-synuclein fibril-inoculated model mouse; details: 50 μl DMSO solution containing 0.1% compound, i.p.
T1 construct: from tissue; host or cells: brain of C57/BL/6 mouse inoculated in the striatum with recombinant (E. coli) mouse α-synuclein fibrils; sections or living animal
Description: (§1) First, mouse α-synuclein was expressed in and extracted from E. coli as a recombinant protein, and then incubated in vitro to form insoluble α-synuclein aggregates. The α-synuclein aggregates were then inoculated into the striatum of a mouse. […] Note that the inoculation of the α-synuclein aggregates into the striatum of the mouse was carried out in the following manner. First, hair on the head of a 9-week-old C57/BL/6 male mouse which had been anesthetized with 1.5% (v/v) isoflurane was removed, and the scalp was disinfected with isodine, followed by application of xylocaine and incision in the scalp to expose the skull. Then, a hole was drilled in the skull at a position of 0.05 mm posterior to the bregma and 2 mm lateral to the midline, and 3 μl of an α-synuclein fibril solution (mouse α-synuclein fibril (4 mg/ml) in saline) was injected into a position 2 μm ventral to the brain surface with use of a glass pipette. The scalp was then returned and sutured.
A model mouse was anesthetized with 1.5% (v/v) isoflurane 6 or more weeks after inoculation of an α-synuclein fibril solution. Then, a cranial window was placed on the model mouse in accordance with the Seylaz-Tomita method (Tomita et al. J Cereb Blood Flow Metab 25, 858-67, 2005). Two or more weeks after the placement of the cranial window, the mouse was anesthetized with 1.5% (v/v) isoflurane, and then 50 μl of a DMSO solution containing 0.1% BF-227, PBB3, SPAL-T-05, or SPAL-T-06 was intraperitoneally administered to the mouse. Thirty minutes after the administration, the mouse was fixed under a two-photon laser fluorescence microscope, 100 μl of physiological saline containing 5 mM Sulforhodamine 101 was intraperitoneally administered to the mouse, and then intravital two-photon fluorescence imaging was carried out at an excitation wavelength of 900 nm. Detection wavelengths for BF-227, PBB3, SPAL-T-05, and SPAL-T-06 were set at 500 nm to 550 nm, and a detection wavelength for Sulforhodamine 101 was set at 573 nm to 648 nm. In FIG. 4, each arrowhead indicates a blood vessel, and each arrow indicates fluorescence from the compound binding to an α-synuclein lesion.

α-synuclein lesions = biological target: T2, α-synuclein lesions (Homo sapiens, UniProt P37840); assay: In vitro fluorescence microscope measurement of the sections subjected to autoradiography (DLB, MSA); details: 30 μM, 50% ethanol, 30 minutes
T2 construct: α-synuclein aggregates formed in the brain of the DLB patient; from tissue; host or cells: post-mortem human brain: amygdala of DLB patient (sections or homogenate); cerebellum of MSA patient
Description: The section that had been subjected to the autoradiography was analyzed by fluorescent staining. Specifically, the section and 30 μM SPAL-T-06 were incubated in a 50% ethanol solution at room temperature for 30 minutes. Thereafter, the section was washed with a 50% ethanol solution for 5 minutes and with ultrapure water for 3 minutes. This washing was carried out twice. After the section was mounted in a mounting medium (VECTASHIELD H-1000), an image of an α-synuclein aggregate-enriched area on the section was obtained with use of a fluorescence microscope (DM4000 (excitation wavelength: 391 nm to 437 nm)). An adjacent brain section was also washed with a phosphate buffer solution, and then treated in an autoclave for antigen retrieval. After the section was subjected to immunohistochemical staining with an anti-phosphorylated α-synuclein monoclonal antibody (pS129, abcam, ab59264) (1:1000) and then mounted in a mounting medium (VECTASHIELD H-1000), images were obtained with use of fluorescence microscopes (BZ-X710, KEYENCE (excitation wavelength: 450 nm to 490 nm) and DM4000 (excitation wavelength: 460 nm to 500 nm)).

[1] = biological target: T3, phosphorylated α-synuclein (Mus musculus, UniProt O55042); assay: In vitro fluorescence microscope measurement, brain sections of α-synuclein fibril-inoculated mouse; details: 30 μM compound, 20% ethanol, 30 minutes; mouse brain section
T3 construct: from tissue; host or cells: brain of C57/BL/6 mouse inoculated in the striatum with recombinant (E. coli) mouse α-synuclein fibrils; sections or living animal
Description: as §1, with “Then, a hole was drilled in the skull at a position of 0.05 mm posterior to the bregma and 2 mm lateral to the midline, and 3 μl of an α-synuclein fibril solution (mouse α-synuclein fibril (4 mg/ml) in saline) was injected into a position 2 μm ventral to the brain surface with use of a glass pipette. The scalp was then returned and sutured.” left out
The brain of this α-synuclein fibril-inoculated mouse was extracted, and then sections were prepared. The sections were analyzed by fluorescent staining. […] After the section was mounted in a mounting medium (VECTASHIELD H-1000), an image of an α-synuclein aggregate-enriched area on the section was obtained with use of a fluorescence microscope (DM4000 (excitation wavelength: 391 nm to 437 nm)). […] After the section was subjected to immunohistochemical staining with use of an anti-phosphorylated α-synuclein monoclonal antibody (pS129, abcam, ab59264) (1:1000) and then mounted in a mounting medium (VECTASHIELD H-1000), an image of the same area as above was obtained with use of a fluorescence microscope (DM4000 (excitation wavelength: 460 nm to 500 nm)). […]

Structure (SMILES): CNc1cnc(C#C/C=C/c2nc3ccc(OCC(O)CF)cc3s2)cn1 (stereo not shown) [SPAL-T-06, (E)-1-fluoro-3-((2-(4-(5-(methylamino)pyrazin-2-yl)but-1-en-3-yn-1-yl)benzo[d]thiazol-6-yl)oxy)propan-2-ol]
- detection of / binding to α-synuclein lesions in living mouse brain (two-photon fluorescence) (α-synuclein lesion; excitation 900 nm): bound to α-synuclein lesions
- delivery into the brain after intraperitoneal administration (α-synuclein lesion; imaging 30 minutes after administration): delivered into the brain and further into neurons of the living body
- binding to α-synuclein lesions in DLB and MSA brain sections (fluorescent staining) (α-synuclein lesions): bound to α-synuclein lesions
- binding to lesion caused by phosphorylated α-synuclein (fluorescent staining, co-stained with pS129 antibody) [1]: bound to a lesion caused by phosphorylated α-synuclein
